{"source": "patent US20220402883A1", "about": "“COMPOUNDS AND METHODS FOR MODULATING RNA FUNCTION” (Arrakis Therapeutics, Inc., priority 2016, published 2022)", "key": {"[1]": {"system": "Split3WJ.2 up_5IB+Split3WJ.2_down_3FAM (trans 3WJ as 1:1 mix)", "experiment": "Fluorescence quenching binding assay (FAM / Iowa Black)", "settings": "two concentration points", "experimental": "This assay will be used to test binding of compounds for RNA three way junction (such as a 38 nt construct). This is a fluorescence quenching assay utilizing FAM as fluorescence tag and Iowa Black as quencher. Tags are attached at the 3′ and 5′ end, respectively. Stable formation of MW upon compound binding would lead to quenching of the FAM fluorescence due to close proximity of the Iowa Black tag. Assay readout: FAM (485-520 nm) Fluorescence Intensity.\nAssay sample buffer used: 10 mM CacoK pH 7.2, 30 mM NaCl. Buffer preparation in Dnase/Rnase Free distilled water (Gibco Life Technologies).\nDilute the RNA 1:10 (final 10 μM) in Assay Buffer.\nHeat up the diluted RNA up to 90° C. for 5 min (sealed Eppendorf Tube).\nCool down the RNA probe slowly to RT.\nDilute the compounds to 800 μM in DMSO (Assay: 8 μM).\nFinal concentrations in the sample: 1-10 μM RNA, 8 μM compound, 1% DMSO\nPipet 25 μL Sample Solution into Greiner cat #784076, black, 384\nMeasure the 96 plate with the LightCycler480 (Channel: 485/520 nm).\nThe fluorescence quenching experiment was repeated for compounds Ark0000013 and Ark0000014 to measure binding with:\nC) Split3WJ.2 up_5IB+Split3WJ.2_down_3FAM (trans 3WJ as 1:1 mix)\nBoth cmpds were tested at two concentration points in the fluorescence quenching assays to assess effect upon RNA constructs utilized in the study. […]"}, "[2]": {"system": "RNA3WJ_0.0.0_5IB_3FAM (3WJ_0.0.0_5IB_3FAM RNA construct)", "experiment": "Thermal shift binding assay", "procedure,_shortened": "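A 3WJ RNA construct, 5′-Iowa Black/3′-FAM labelled and annealed (90° C. for 5 min, slow cooling), was tested at 1 μM with 8 μM compound, 1% DMSO, in 10 mM CacoK pH 7.2, 30 mM NaCl. FAM fluorescence (480/510 nm) monitored from 41 to 91° C. at 0.1° C./sec. Compound effect on 3WJ stability taken from Tm shift of melting curves.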"}, "[3]": {"system": "RNA3WJ_3.0.0_5IB_3FAM", "experiment": "Thermal shift binding assay", "settings": "1 μM RNA, 8 μM compound, 10 mM CacoK pH 7.2, 30 mM NaCl"}, "[4]": {"system": "RNA3WJ_0.0.0_5B_3FAM (3WJ RNA)", "experiment": "Ligand observed NMR binding assay (Watergate, WaterLOGSY, STD)", "settings": "10 μM RNA, +/− 200 Ark000013", "experimental": "Purpose: Test direct binding of compounds for RNA three way junction (3WJ). This ligand observed NMR assay is used to test direct binding of compounds to an RNA target, for example a 38 nt synthetic RNA 3WJ and others as described below. Ligand observed assay was used for hit validation studies of single compounds. Established experiments were eventually used to perform group epitope mapping, described below.\nSample buffer: 10 mM Cacodylate, pH 7.1; 0.68 g [MW: 137.99 g/mol]; fill up to 500 ml with Millipore H2O.\nCompound Stocks: Tool compounds provided as dry powder were prepared as 50 mM stock solution in 100% d6-DMSO. Test compounds provided as dry powder were prepared as 50 mM stock solution in 100% d6-DMSO. Stock solutions of 50 mM concentration in d6-DMSO were stored at 4° C.\nNMR spectrometer: Bruker AVANCE600 spectrometer operating at 600.0 MHz for ^1H. 5-mm z-gradient TXI Cryoprobe.\nDried RNA pellet is solubilized in sample buffer 10 mM Cacodylate pH 7.1. […]\nSpectra were analyzed for direct binding signals of the compounds. […]\nARK0000013 was also tested in the NMR binding assay. Test Sample: 10 μM RNA3WJ_0.0.0_5B_3FAM+/−200 Ark000013. ^1H 1D Watergate & WaterLOGSY spectra recorded of Ark000013 were used as a reference (Note: aromatic signals observed between 7.4-7.9 ppm and due to symmetry of the center triptycene scaffold all 9 protons are magnetically equivalent)."}, "[5]": {"settings": "1 μM RNA, 8 μM compound, 10 mM CacoK pH 7.2, 30 mM NaCl"}}}
{"smiles": "CN(CCCN)CCCNC(=O)c1ccc2c(c1)C1c3cc(C(=O)NCCCN(C)CCCN)ccc3C2c2ccc(C(=O)NCCCN(C)CCCN)cc21", "note": "[Ark000013, N^2,N^7,N^15-tris(3-((3-aminopropyl)(methyl)amino)propyl)-9,10-dihydro-9,10-[1,2]benzenoanthracene-2,7,15-tricarboxamide]", "values": [{"measurement": "fluorescence quenching effect (FAM fluorescence signal)", "setting": "[1]", "value": "significant concentration dependent effect"}, {"measurement": "Melting temp + cmpd", "setting": "[2]; [5]", "value": 84.1, "unit": "°C"}, {"measurement": "Temp. Shift", "setting": "[2]; [5]", "value": 24.2, "unit": "°C"}, {"measurement": "Melt. Temp. with cmpd", "setting": "[2]; RNA sequence 3WJ_0.0.0_5IB_FAM, melting temperature in presence of compound", "value": 84.1, "unit": "°C"}, {"measurement": "Shift melt. Temp.", "setting": "[2]; RNA sequence 3WJ_0.0.0_5IB_FAM, with cmpd minus without cmpd", "value": "+24.2 °C"}, {"measurement": "Melting temp + cmpd", "setting": "[3]", "value": 83.7, "unit": "°C"}, {"measurement": "Temp. Shift", "setting": "[3]", "value": 21.7, "unit": "°C"}, {"measurement": "STD signals", "setting": "[4]", "value": "small signals"}, {"measurement": "WaterLOGSY signals in the presence of RNA", "setting": "[4]", "value": "clear reduction of negative sign signals"}]}
